Patent US20150018384A1, “TREATMENT FOR HIGH CHOLESTEROL” (FibroGen, Inc., priority 2012, published 2015)

How the values were obtained:
ApoE deficient mice = experiment: High cholesterol mouse model, ApoE deficient mice, 2 weeks; type: in vivo; details: Compound 60 mg/kg three times a week for two weeks, n=10/group, FIG. 22
Text: Ten-week-old male apoE knockout mice (Jackson Laboratories, Bar Harbor, Me.) were fed a normal chow diet (0.02% cholesterol, 13.5% fat by weight; LabDiet). […] After 2 weeks of acclimatization, whole blood was collected for baseline measurement before administration of test reagents. […] The animals were sacrificed at end of study.
ApoE deficient mice as described in Example 10 were used to test the effect of various compounds on cholesterol levels. […] A statin compound (rosuvastatin) was also tested. Blood samples were collected at the end of the study and total cholesterol blood levels were tested. A group of 10 mice was sacrificed at the beginning of the study for a baseline total cholesterol measurement. […] Typically statins show mixed results in this model and are not very effective to reduce cholesterol in mice (Bea et al. 2003 Atherosclerosis 167:187-194).

DIO mice = experiment: High cholesterol mouse model, diet induced obesity (DIO) mice
Text: Ten-week-old male apoE knockout mice (Jackson Laboratories, Bar Harbor, Me.) were fed a normal chow diet (0.02% cholesterol, 13.5% fat by weight; LabDiet). Ten-week-old male diet induced obese mice (DIO Mice, Jackson Laboratories, Bar Harbor, Me.) were fed a high fat diet (0.095% cholesterol, 60% fat by weight; ResearchDiets) starting at six-weeks-old. After 2 weeks of acclimatization, whole blood was collected for baseline measurement before administration of test reagents. All test reagents were administered orally by gavage needle three times a week for 2 weeks for the apoE mice, and three times a week for 4 weeks for the DIO mice. The animals were sacrificed at end of study. Whole blood was collected weekly in Heparin-tube by submandibular bleeding and isolated plasma was stored at −80° C. for measurement of total cholesterol.
DIO mice as described in Example 10 were used to test the effect of various compounds on cholesterol levels. Compound (60 mg/kg) or vehicle was administered to the mice (n=10/group) three times a week for four weeks. A statin compound (rosuvastatin) was also tested. Blood samples were collected at weekly and total cholesterol blood levels were tested.

cynomolgus monkeys [1] = experiment: Lipid panel in monkeys after single IV or PO dose; type: in vivo, cynomolgus monkey; details: 30 mg/kg IV or PO (3 each, 6 monkeys), 24 hrs post-dose, ±SD
Protocol: The same monkeys were administered the test compounds in sequence with a washout period between administration of each compound. Monkeys were fasted overnight prior to dosing and food was withheld during the first 4 hours after dosing and food was then allowed. Blood samples were collected at baseline prior to dosing, 4, 12, 24, 48 and 72 hrs after HIF-PHI administration. […] There were a total of 6 monkeys in each dose group, 3 that were dosed PO and 3 dosed IV.

[2] = tested on: Cholesterol Biosynthesis Genes in the Mouse Liver; experiment: Microarray expression of cholesterol biosynthesis genes in mouse liver; type: in vivo; details: 10 mg/kg oral
Protocol: A number of PHI compounds were evaluated for their effect on the expression of cholesterol biosynthesis genes in mouse liver. […] Liver tissue was harvested and stored in RNALater (Life Technologies). Total RNA was isolated with Trizol (Life Technologies) and purified with RNEasy96 (Qiagen) according to the manufacturers' protocols. RNA concentration was measured by NanoDrop (Thermo), and quality was assessed by Bioanalyzer (Agilent).
Biotinylated microarray probe was prepared using the 3′IVT Express kit (Affymetrix) and hybridized to mouse 430A 2.0 arrays as recommended in the manufacturer's protocol. Arrays were stained, washed, and scanned using Affymetrix equipment and software. Three arrays were run for each treatment and time point, each representing the liver sample from one individual animal.
Animals were sacrificed 4 h or 8 h later. Each compound was tested in a separate animal study with separate controls. Liver tissue was harvested and stored in RNALater (Life Technologies). Total RNA was isolated with Trizol (Life Technologies) and purified with RNEasy96 (Qiagen) according to the manufacturers' protocols. RNA concentration was measured by NanoDrop (Thermo), and quality was assessed by Bioanalyzer (Agilent).
For microarray analysis, RNA from animals in each treatment group was pooled in pairs (n=3 pairs for 4 h vehicle, n=2 pairs for all other treatment groups, for a total of 13 arrays per compound study). This approach was used to improve the signal-to-noise ratio on microarrays. Biotinylated probe was prepared using the One-Cycle cDNA synthesis kit (Affymetrix) and hybridized to mouse 430A 2.0 arrays as recommended in the manufacturer's protocol. Arrays were stained, washed, and scanned using Affymetrix equipment and software.
Array quality was assessed with GeneChip Operating System and/or Command Console software (Affymetrix). CEL files were uploaded to GeneSpring 7.3.1 (Agilent) using GC-RMA baseline correction. Principal Components Analysis was used to identify and reject outlier arrays. Data are reported as fold-change compared to timepoint-matched vehicle controls from the same study. Values less than 1.0 indicate a reduction of RNA in the treated animal liver tissue.

cynomolgus monkeys [3] = experiment: Cholesterol levels after repeated oral administration in monkey toxicity studies; type: in vivo, cynomolgus monkey; details: 28-Day study, daily oral dosing 1, 10 and 30 mg/kg, day 14 and 29
Protocol: During these studies monkeys were fasted prior to each blood collection. Plasma samples were then evaluated at pre-dose and at different time-points for levels of total cholesterol.

healthy human subjects = details: 0.15 mg/kg or […] weekly for 4 weeks
Protocol: Placebo was administered in the same regimen as a control (n=2 or n=1). Fasting blood samples for cholesterol analysis were collected from subjects in the morning on the day of dosing before compound or placebo was administered.

CC(C)c1nc(N(C)S(C)(=O)=O)nc(-c2ccc(F)cc2)c1/C=C/[C@@H](O)C[C@@H](O)CC(=O)O [rosuvastatin, reference compound]
total cholesterol levels at the end of the study compared to baseline (ApoE deficient mice): did not show a reduction in cholesterol
percent change from baseline in total cholesterol at two weeks compared to vehicle treated (DIO mice; Compound 60 mg/kg three times a week, n=10/group, FIG. 23): lower total cholesterol levels

N#Cc1nc(C(=O)NCC(=O)O)c(O)c2ccn(Cc3ccccc3F)c12 [Compound G, {[7-Cyano-1-(2-fluoro-benzyl)-4-hydroxy-1H-pyrrolo[2,3-c]pyridine-5-carbonyl]-amino}-acetic acid]
Cholesterol change from baseline (cynomolgus monkeys [1]): -6.5 ± 10.4 mg/dL
HDL change from baseline (cynomolgus monkeys [1]): 0.17 ± 5.4 mg/dL
LDL change from baseline (cynomolgus monkeys [1]): -8.7 ± 5.9 mg/dL
LDL/HDL ratio change from baseline (cynomolgus monkeys [1]): −0.13 ± 0.08
TGs change from baseline (cynomolgus monkeys [1]): -23 ± 8 mg/dL
3-hydroxy-3-methylglutaryl-Coenzyme A reductase (Hmgcr) RNA expression ([2]; 4 h): 0.68 fold-change
3-hydroxy-3-methylglutaryl-Coenzyme A synthase 1 (Hmgcs1) RNA expression ([2]; 4 h): 1.29 fold-change
7-dehydrocholesterol reductase (Dhcr7) RNA expression ([2]; 4 h): 0.91 fold-change
NAD(P) dependent steroid dehydrogenase-like (Nsdhl) RNA expression ([2]; 4 h): 1.46 fold-change
acetyl-Coenzyme A acetyltransferase 2 (Acat2) RNA expression ([2]; 4 h): 1.18 fold-change
cytochrome P450, family 51 (Cyp51) RNA expression ([2]; 4 h): 1.00 fold-change
farnesyl diphosphate farnesyl transferase 1 (Fdft1) RNA expression ([2]; 4 h): 1.15 fold-change
farnesyl diphosphate synthetase (Fdps) RNA expression ([2]; 4 h): 1.16 fold-change
isopentenyl-diphosphate delta isomerase (Idi1) RNA expression ([2]; 4 h): 1.13 fold-change
lanosterol synthase (Lss) RNA expression ([2]; 4 h): 1.22 fold-change
mevalonate (diphospho) decarboxylase (Mvd) RNA expression ([2]; 4 h): 1.03 fold-change
mevalonate kinase (Mvk) RNA expression ([2]; 4 h): 0.98 fold-change
phosphomevalonate kinase (Pmvk) RNA expression ([2]; 4 h): 0.95 fold-change
squalene epoxidase (Sqle) RNA expression ([2]; 4 h): 1.50 fold-change
sterol-C4-methyl oxidase-like (Sc4mol) RNA expression ([2]; 4 h): 0.87 fold-change
sterol-C5-desaturase (fungal ERG3, delta-5-desaturase) homolog (S. cerevisae) (Sc5d) RNA expression ([2]; 4 h): 0.70 fold-change
3-hydroxy-3-methylglutaryl-Coenzyme A reductase (Hmgcr) RNA expression ([2]; 8 h): 0.66 fold-change
3-hydroxy-3-methylglutaryl-Coenzyme A synthase 1 (Hmgcs1) RNA expression ([2]; 8 h): 0.82 fold-change
7-dehydrocholesterol reductase (Dhcr7) RNA expression ([2]; 8 h): 1.07 fold-change
NAD(P) dependent steroid dehydrogenase-like (Nsdhl) RNA expression ([2]; 8 h): 1.00 fold-change
acetyl-Coenzyme A acetyltransferase 2 (Acat2) RNA expression ([2]; 8 h): 0.67 fold-change
cytochrome P450, family 51 (Cyp51) RNA expression ([2]; 8 h): 0.62 fold-change
farnesyl diphosphate farnesyl transferase 1 (Fdft1) RNA expression ([2]; 8 h): 0.98 fold-change
farnesyl diphosphate synthetase (Fdps) RNA expression ([2]; 8 h): 0.73 fold-change
isopentenyl-diphosphate delta isomerase (Idi1) RNA expression ([2]; 8 h): 0.94 fold-change
lanosterol synthase (Lss) RNA expression ([2]; 8 h): 0.87 fold-change
mevalonate (diphospho) decarboxylase (Mvd) RNA expression ([2]; 8 h): 1.03 fold-change
mevalonate kinase (Mvk) RNA expression ([2]; 8 h): 0.89 fold-change
phosphomevalonate kinase (Pmvk) RNA expression ([2]; 8 h): 0.70 fold-change
squalene epoxidase (Sqle) RNA expression ([2]; 8 h): 1.22 fold-change
sterol-C4-methyl oxidase-like (Sc4mol) RNA expression ([2]; 8 h): 0.58 fold-change
sterol-C5-desaturase (fungal ERG3, delta-5-desaturase) homolog (S. cerevisae) (Sc5d) RNA expression ([2]; 8 h): 0.48 fold-change
body weights at the end of the study (DIO mice; 60 mg/kg three times a week for four weeks): lower body weights

N#Cc1nc(C(=O)NCC(=O)O)c(O)c2c(Oc3ccc(Cl)cc3)cccc12 [Compound C]
total cholesterol levels (cynomolgus monkeys [3]): dose-dependent decrease in cholesterol levels
total cholesterol levels (cynomolgus monkeys [3]; listed as compound C): dose dependent decrease in total cholesterol
Cholesterol change from baseline (cynomolgus monkeys [1]): -11.8 ± 4.9 mg/dL
HDL change from baseline (cynomolgus monkeys [1]): 0.5 ± 6.9 mg/dL
TGs change from baseline (cynomolgus monkeys [1]): -10 ± 21 mg/dL
total cholesterol levels over the course of treatment (healthy human subjects): decreased
